In US20210220356A1, “DIHYDROPYRIMIDINE DERIVATIVES AND USES THEREOF IN THE TREATMENT OF HBV INFECTION OR OF HBV-INDUCED DISEASES” (Janssen Sciences Ireland Unlimited Company, priority 2018, published 2021):

How the values were obtained:
[1] = test system: HepG2.2.15 cells; assay: Cytotoxicity determination in HepG2.2.15 cells (CCK-8); format: cell-based; conditions: HepG2.2.15 cells, 5,000 cells/well, 6 days of compound treatment, CCK-8 absorbance 450 nm, highest concentration 100 uM
Procedure: (§1) • HepG2.2.15 (the HepG2.2.15 cell line can be produced by transfection of the HepG2 cell line as described in Sells, Chen, and Acs 1987 (Proc. Natl. Acad. Sci. USA 84: 1005-1009), and the HepG2 cell line is available from ATCC® under number HB-8065™)
(§2) Seed the cell HepG2.2.15 cells into 96-well plate in 2% FBS culture medium at the density of 40,000 cells/well and 5,000 cells/well for HBV inhibitory activity and cytotoxicity determination, respectively. After seeding, incubate the cell plates at 37° C., 5% CO2 overnight. The next day, medium containing compounds is added to the cell to treat the cells for 6 days with medium refreshed once in the middle of the treatment. 8 dose points with 3 folds dilution of each compound were adopted and the highest concentration of the compounds is 10 uM and 100 uM for HBV inhibitory activity and cytotoxicity determination, respectively.
After 6 days of compounds treatment, add 20 μl CCK-8 reagents to each well of cytotoxicity assay plates, incubate the plate at 37° C., 5% CO2 for 2.5 h and measure the absorbance at 450 nm wavelength, at the same time read the absorbance at 630 nm wavelength as reference.
(§3) EC50 and CC50 values are calculated by the GRAPHPAD PRISM software.

[2] = test system: HBV; assay: HBV inhibitory activity in HepG2.2.15 cells (HBV DNA in culture medium by q-PCR); format: cell-based; conditions: HepG2.2.15 cells, 40,000 cells/well, 6 days of compound treatment, HBV DNA in culture medium by q-PCR, highest concentration 10 uM; read-out: EC50
Procedure: as §1, §2
The HBV DAN change in the cell culture medium induced by the compounds is measured by q-PCR method. Briefly, the HBV DNA in the culture medium is extracted using QIAamp 96 DNA Blood Kit according to the manual and then quantified by q-PCR using the primers and probe in the table below.
as §3

| SMILES | CC50 [1] [µM] | EC50 [2] [µM] |
| --- | --- | --- |
| COC(=O)C1=C(C2CCc3nn(CCC(=O)O)cc3C2)NC(c2nccs2)=NC1c1ccc(F)c(F)c1Br (single isomer, unassigned) [Compound 46d, 3-(5-(6-(2-Bromo-3,4-difluorophenyl)-5-(methoxycarbonyl)-2-(thiazol-2-yl)-3,6-dihydropyrimidin-4-yl)-4,5,6,7-tetrahydro-2H-indazol-2-yl)propanoic acid] | 10.7 | 0.0136 |
| COC(=O)C1=C(C2CCc3nn(CCC(=O)O)cc3C2)NC(c2nccs2)=NC1c1ccc(F)cc1Cl (single isomer, unassigned) [Compound 47b, 3-(5-(6-(2-Chloro-4-fluorophenyl)-5-(methoxycarbonyl)-2-(thiazol-2-yl)-3,6-dihydropyrimidin-4-yl)-4,5,6,7-tetrahydro-2H-indazol-2-yl)propanoic acid] | 37.7 | 0.47 |
| COC(=O)C1=C(C2CCc3nn(CCC(=O)O)cc3C2)NC(c2nccs2)=NC1c1ccc(F)cc1Cl (single isomer, unassigned) [Compound 47c, 3-(5-(6-(2-Chloro-4-fluorophenyl)-5-(methoxycarbonyl)-2-(thiazol-2-yl)-3,6-dihydropyrimidin-4-yl)-4,5,6,7-tetrahydro-2H-indazol-2-yl)propanoic acid] | > 100 | 0.147 |
| COC(=O)C1=C(C2CCc3nn(CCC(=O)O)cc3C2)NC(c2nccs2)=NC1c1ccc(F)cc1Br (single isomer, unassigned) [Compound 48b, 3-(5-(6-(2-Bromo-4-fluorophenyl)-5-(methoxycarbonyl)-2-(thiazol-2-yl)-3,6-dihydropyrimidin-4-yl)-4,5,6,7-tetrahydro-2H-indazol-2-yl)propanoic acid] | 80 | 0.6 |
| COC(=O)C1=C(C2CCc3nn(CCC(=O)O)cc3C2)NC(c2nccs2)=NC1c1ccc(F)cc1Br (single isomer, unassigned) [Compound 48d, 3-(5-(6-(2-Bromo-4-fluorophenyl)-5-(methoxycarbonyl)-2-(thiazol-2-yl)-3,6-dihydropyrimidin-4-yl)-4,5,6,7-tetrahydro-2H-indazol-2-yl)propanoic acid] | 34.3 | 0.03 |
| CCOC(=O)C1=C(C2CCc3nn(CC(=O)O)cc3C2)NC(c2nccs2)=NC1c1ccc(F)c(F)c1Cl (single isomer, unassigned) [Compound 49c] | 25.4 | 0.11 |
| CCOC(=O)C1=C(C2CCc3nn(CCCC(=O)O)cc3C2)NC(c2nccs2)=NC1c1ccc(F)c(F)c1Cl (single isomer, unassigned) [Compound 50c, 4-(5-(6-(2-Chloro-3,4-difluorophenyl)-5-(ethoxycarbonyl)-2-(thiazol-2-yl)-3,6-dihydropyrimidin-4-yl)-4,5,6,7-tetrahydro-2H-indazol-2-yl)butanoic acid] | 11.9 | < 0.0046 |
| CCOC(=O)C1=C(C2CCc3nn(C(C)CC(=O)O)cc3C2)NC(c2nccs2)=NC1c1ccc(F)c(F)c1Cl (single isomer, unassigned) [Compound 51c, 3-(5-(6-(2-chloro-3,4-difluorophenyl)-5-(ethoxycarbonyl)-2-(thiazol-2-yl)-3,6-dihydropyrimidin-4-yl)-4,5,6,7-tetrahydro-2H-indazol-2-yl)butanoic acid] | 8.6 | 0.0097 |
| CCOC(=O)C1=C(C2CCc3nn(C(C)CC(=O)O)cc3C2)NC(c2nccs2)=NC1c1ccc(F)c(F)c1Cl (single isomer, unassigned) [Compound 52d, 3-(5-(6-(2-chloro-3,4-difluorophenyl)-5-(ethoxycarbonyl)-2-(thiazol-2-yl)-3,6-dihydropyrimidin-4-yl)-4,5,6,7-tetrahydro-2H-indazol-2-yl)butanoic acid] | 10.5 | 0.0124 |
| CCOC(=O)C1=C(C2CCc3nn(CC(C)(C)C(=O)O)cc3C2)NC(c2nccs2)=NC1c1ccc(F)c(F)c1Cl (single isomer, unassigned) [Compound 53b, 3-(5-(6-(2-Chloro-3,4-difluorophenyl)-5-(ethoxycarbonyl)-2-(thiazol-2-yl)-3,6-dihydropyrimidin-4-yl)-4,5,6,7-tetrahydro-2H-indazol-2-yl)-2,2-dimethylpropanoic acid] | 11.9 | 0.104 |
| CCOC(=O)C1=C(C2CCc3nn(CC(C)(C)C(=O)O)cc3C2)NC(c2nccs2)=NC1c1ccc(F)c(F)c1Cl (single isomer, unassigned) [Compound 53c, 3-(5-(6-(2-Chloro-3,4-difluorophenyl)-5-(ethoxycarbonyl)-2-(thiazol-2-yl)-3,6-dihydropyrimidin-4-yl)-4,5,6,7-tetrahydro-2H-indazol-2-yl)-2,2-dimethylpropanoic acid] | 10.9 | < 0.0046 |
| CCOC(=O)C1=C(C2CCc3oc(CCC(=O)O)nc3C2)NC(c2nccs2)=NC1c1ccc(F)c(F)c1Cl (single isomer, unassigned) [Compound 57f, 3-(5-(6-(2-Chloro-3,4-difluorophenyl)-5-(ethoxycarbonyl)-2-(thiazol-2-yl)-3,6-dihydropyrimidin-4-yl)-4,5,6,7-tetrahydrobenzo[d]oxazol-2-yl)propanoic acid] | 12.6 | 0.0908 |
| CCOC(=O)C1=C(C2CCc3nc(CCC(=O)O)oc3C2)NC(c2nccs2)=NC1c1ccc(F)c(F)c1Cl (single isomer, unassigned) [Compound 58d, 3-(6-(6-(2-Chloro-3,4-difluorophenyl)-5-(ethoxycarbonyl)-2-(thiazol-2-yl)-3,6-dihydropyrimidin-4-yl)-4,5,6,7-tetrahydrobenzo[d]oxazol-2-yl)propanoic acid] | 10.8 | 0.0092 |
| CCOC(=O)C1=C(C2CCc3sc(CCC(=O)O)nc3C2)NC(c2nccs2)=NC1c1ccc(F)c(F)c1Cl (single isomer, unassigned) [Compound 59f, 3-(5-(6-(2-Chloro-3,4-difluorophenyl)-5-(ethoxycarbonyl)-2-(thiazol-2-yl)-3,6-dihydropyrimidin-4-yl)-4,5,6,7-tetrahydrobenzo[d]thiazol-2-yl)propanoic acid] | 5.8 | 0.209 |
| CCOC(=O)C1=C(C2CCc3nc(CCC(=O)O)sc3C2)NC(c2nccs2)=NC1c1ccc(F)c(F)c1Cl (single isomer, unassigned) [Compound 60c, 3-(6-(6-(2-Chloro-3,4-difluorophenyl)-5-(ethoxycarbonyl)-2-(thiazol-2-yl)-3,6-dihydropyrimidin-4-yl)-4,5,6,7-tetrahydrobenzo[d]thiazol-2-yl)propanoic acid] | 5.5 | 0.0135 |
| CCOC(=O)C1=C(C2CCc3cn(CCC(=O)O)nc3C2)NC(c2nccs2)=NC1c1ccc(F)c(F)c1Cl (single isomer, unassigned) [Compound 61a, 3-(6-(6-(2-Chloro-3,4-difluorophenyl)-5-(ethoxycarbonyl)-2-(thiazol-2-yl)-3,6-dihydropyrimidin-4-yl)-4,5,6,7-tetrahydro-2H-indazol-2-yl)propanoic acid] | 4.8 | 0.0612 |
| CCOC(=O)C1=C(C2CCc3cn(CCC(=O)O)nc3C2)NC(c2nccs2)=NC1c1ccc(F)c(F)c1Cl (single isomer, unassigned) [Compound 61c, 3-(6-(6-(2-Chloro-3,4-difluorophenyl)-5-(ethoxycarbonyl)-2-(thiazol-2-yl)-3,6-dihydropyrimidin-4-yl)-4,5,6,7-tetrahydro-2H-indazol-2-yl)propanoic acid] | 29 | 0.125 |
